According to US8815535B2, “Disk diffusion assay for oritavancin” (The Medicines Company, priority 2011, dated 2014):
Where “and” joins values, the source holds several entries; their conditions need not be identical. Equal entries are not always repeated. Where two headings read alike, the source gives them in different places.

What was measured:
Test in all cases: Disk diffusion assay (zone of inhibition)
Assay type in all cases: cell-based, Staphylococcus aureus
MRSA Q670505 = settings: 20 μl of 1.25 mg/ml in 4% P80/Span 80 (1:1), calcium alginate swabs, dried overnight, duplicate
Experimental: (§1) Oritavancin powder was dissolved in freshly-prepared solutions of the indicated excipients at concentrations of 0.625, 1.25, 2.5, 5, and 10 mg/ml (adjusted for potency based on lot 875561L00 purity of 83.1%) by vortexing for a minimum of 5 minutes. Oritavancin solutions in the various excipients, while not visually clear, were free from any apparent particulates as assessed visually. Sterile Oxoid blank disks were impregnated with 20 μl of these oritavancin solutions, resulting in oritavancin disk loads ranging from 12.5 to 200 μg. Unless indicated otherwise, disks were allowed to dry overnight at room temperature prior to use.
(§2) Bacterial suspensions from isolated colonies on overnight cation-adjusted Mueller Hinton agar plates were prepared in sterile saline and adjusted to an optical density of 0.1 at 600 nm Standard cation-adjusted Mueller Hinton agar plates (90 mm diameter) were seeded with bacterial suspensions by initially swabbing the center of plate then moving outward. Swabbing was continued at a right angle and then at an oblique angle to the first and second swabs. Disks were placed upon the seeded plates with sterile forceps. Plates were then incubated overnight at 37° C. and inhibition zone diameters were measured with a ruler and reported in millimeters.

MSSA S815247 = settings: 20 μl of 1.25 mg/ml in 4% P80/Span 80 (1:1), calcium alginate swabs, dried overnight, duplicate
Experimental: as §1, §2

MRSA Q670607 = settings: 20 μl of 1.25 mg/ml in 4% P80/Span 80 (1:1), calcium alginate swabs, dried overnight, duplicate
Experimental: as §1, §2

MRSA Q141067 = settings: 20 μl of 1.25 mg/ml in 4% P80/Span 80 (1:1), calcium alginate swabs, dried overnight, duplicate
Experimental: as §1, §2

MSSA S815246 = settings: 20 μl of 1.25 mg/ml in 4% P80/Span 80 (1:1), calcium alginate swabs, dried overnight, duplicate
Experimental: as §1, §2

MRSA U933237 = settings: 20 μl of 1.25 mg/ml in 4% P80/Span 80 (1:1), calcium alginate swabs, dried overnight, duplicate
Experimental: as §1, §2

MRSA V257345 = settings: 20 μl of 1.25 mg/ml in 4% P80/Span 80 (1:1), calcium alginate swabs, dried overnight, duplicate
Experimental: as §1, §2

MRSA U260847 = settings: 20 μl of 1.25 mg/ml in 4% P80/Span 80 (1:1), calcium alginate swabs, dried overnight, duplicate
Experimental: as §1, §2

MSSA U933236 = settings: 20 μl of 1.25 mg/ml in 4% P80/Span 80 (1:1), calcium alginate swabs, dried overnight, duplicate
Experimental: as §1, §2

MSSA T811355 = settings: 20 μl of 1.25 mg/ml in 4% P80/Span 80 (1:1), calcium alginate swabs, dried overnight, duplicate
Experimental: as §1, §2

MSSA U781969 = settings: 20 μl of 1.25 mg/ml in 4% P80/Span 80 (1:1), calcium alginate swabs, dried overnight, duplicate
Experimental: as §1, §2

VISA NRS3 = settings: for zone of inhibition at 360 µg/disc: Staphylococcus aureus, 360 μg oritavancin, 3 h prediffusion, average of 2 disks, read-out: Average zone diameter
Source text: (§3) The study was designed to identify conditions that improve oritavancin diffusion in agar and consequently yield a zone diameter ≧15 mm for the CLSI quality control strain MSSA ATCC 25923. Excipients that increased the disk diffusion of oritavancin in agar relative to disks containing only oritavancin were identified and selected for further study. […] A prediffusion step at room temperature was introduced to maximize oritavancin diffusion prior to initiation of bacterial growth. In this step, the antimicrobial disks were placed on agar plates seeded with a bacterial isolate and incubated at room temperature for 3 hours. Plates were then incubated overnight at 37° C. Zone diameters around the disks in which bacterial growth was inhibited were measured with a ruler and reported in millimeters.
(§4) Ethanol-sterilized Whatman paper disks (6 mm diameter) were allowed to dry then impregnated with 20 microliters of oritavancin solution containing total amounts ranging from 90 to 360 micrograms. Disks were allowed to dry at room temperature for various times prior to use.
(§5) Bacterial suspensions were prepared and adjusted to an optical density of 0.1 at 600 nm. Standard cation-adjusted Mueller Hinton agar plates (90 mm diameter) were seeded with bacterial suspensions by initially swabbing the center of plate then moving outward towards the edge. The plate was swabbed a second time, perpendicular to the orientation of the first swab. To assess the impact of prediffusion on diameter of inhibition zones, two disks were immediately placed on one half of the plate and the plate was incubated for 3 hours at room temperature. After 3 hours, two additional disks were placed on the other half of the plate then the plate was incubated overnight at 37° C. Zone diameters were measured with a ruler and reported in millimeters.
as §1, §2

hVISA NRS2 = settings: NRS2; for zone of inhibition at 360 µg/disc / zone of inhibition at 90 µg/disc / zone of inhibition at 180 µg/disc: Staphylococcus aureus; for zone of inhibition at 90 µg/disc: 90 μg oritavancin; for zone of inhibition at 180 µg/disc: 180 μg oritavancin
Source text: as §3, §4, §5, §1, §2

[1] = Staphylococcus aureus, MRSA, read-out: Inhibition zone diameter
[2] = Staphylococcus aureus, MSSA, read-out: Inhibition zone diameter
[3] = NRS2, 192 h, 2.5% P80, disks stored 8 days, prediffusion, read-out: Average zone diameter
[4] = NRS2, 336 h, 5% P80, disks stored 14 days, prediffusion, read-out: Average zone diameter

## CN[C@H](CC(C)C)C(=O)N[C@H]1C(=O)N[C@@H](CC(N)=O)C(=O)N[C@H]2C(=O)N[C@H]3C(=O)N[C@H](C(=O)N[C@H](C(=O)O)c4cc(O)cc(O)c4-c4cc3ccc4O)[C@H](O[C@H]3C[C@](C)(N)[C@@H](O)[C@H](C)O3)c3ccc(c(Cl)c3)Oc3cc2cc(c3O[C@@H]2O[C@H](CO)[C@@H](O)[C@H](O)[C@H]2O[C@H]2C[C@](C)(NCc3ccc(-c4ccc(Cl)cc4)cc3)[C@@H](O)[C@H](C)O2)Oc2ccc(cc2Cl)[C@H]1O [oritavancin, N-(4-(4-chlorophenyl)benzyl)A82846B]
MRSA Q670505
  Inhibition zone diameter: 18, 18 mm
MRSA Q670505; [1]
  zone of inhibition at 1250 µg/mL: 18 mm
MSSA S815247
  Inhibition zone diameter: 21 mm
MSSA S815247; [2]
  zone of inhibition at 1250 µg/mL: 20 mm
MRSA Q670607
  Inhibition zone diameter: 22 mm
MRSA Q670607; [1]
  zone of inhibition at 1250 µg/mL: 21 mm
MRSA Q141067
  Inhibition zone diameter: 22 mm
MRSA Q141067; [1]
  zone of inhibition at 1250 µg/mL: 21 mm
MSSA S815246
  Inhibition zone diameter: 22 mm
MSSA S815246; [2]
  zone of inhibition at 1250 µg/mL: 21 mm
MRSA U933237
  Inhibition zone diameter: 22 mm
MRSA U933237; [1]
  zone of inhibition at 1250 µg/mL: 21 mm
MRSA V257345
  Inhibition zone diameter: 22 mm
MRSA V257345; [1]
  zone of inhibition at 1250 µg/mL: 21 mm
MRSA U260847
  Inhibition zone diameter: 22 mm
MRSA U260847; [1]
  zone of inhibition at 1250 µg/mL: 21 mm
MSSA U933236
  Inhibition zone diameter: 22 mm
MSSA U933236; [2]
  zone of inhibition at 1250 µg/mL: 21 mm
MSSA T811355
  Inhibition zone diameter: 22 mm
MSSA T811355; [2]
  zone of inhibition at 1250 µg/mL: 21 mm
MSSA U781969
  Inhibition zone diameter: 23 mm
MSSA U781969; [2]
  zone of inhibition at 1250 µg/mL: 22 mm
VISA NRS3; 25 μg (1.25 mg/ml) in 4% P80/Span 80 (1:1), dried overnight
  Inhibition zone diameter: no zone
VISA NRS3; excipient 5% P80, disks stored 5 days at room temperature
  zone of inhibition at 360 µg/disc: 14 mm
VISA NRS3; excipient 10% HPCD, disks made same day
  zone of inhibition at 360 µg/disc: 16.8 mm
hVISA NRS2; 25 μg (20 μl of 1.25 mg/ml) in 4% P80/Span 80 (1:1), calcium alginate swab, dried overnight
  Inhibition zone diameter: 10 mm and 12, 12 mm
hVISA NRS2; NRS2, 3 h, 360 μg oritavancin, excipient 10% HPCD, disks made same day, 3 h prediffusion, average of 2 disks, read-out: Average zone diameter
  zone of inhibition at 360 µg/disc: 17.5 mm
hVISA NRS2; [3]
  zone of inhibition at 90 µg/disc: 14 mm
  zone of inhibition at 180 µg/disc: 14.8 mm
hVISA NRS2; NRS2, 192 h, 360 μg in 5% P80, Experiment 2, disks stored 8 days, no prediffusion, read-out: Zone diameter (mm ± SD)
  zone of inhibition at 360 µg/disc: 14.3 ± 0.4 mm
hVISA NRS2; NRS2, 192 h, 360 μg oritavancin, 2.5% P80, disks stored 8 days, prediffusion, read-out: Average zone diameter
  zone of inhibition at 360 µg/disc: 15 mm
hVISA NRS2; [4]
  zone of inhibition at 90 µg/disc: 15 mm
  zone of inhibition at 180 µg/disc: 16 mm
hVISA NRS2; NRS2, 336 h, 10% P80, disks stored 14 days, prediffusion, read-out: Average zone diameter
  zone of inhibition at 90 µg/disc: 15.8 mm
